Measurements: paper PMC9171646 (Proceedings of the National Academy of Sciences of the …, 2022)
“Also recorded” adds a separate entry of the source.

What was measured:
EF-G(GDP)-ribosome INT2 = settings: cited from earlier work
[1] = tested on: EF-G-bound translocating 70S ribosome; assay: Presteady-state smFRET imaging of translocation; type: biochemical, E. coli; settings: for Final state after prolonged stalling: 400 ms time resolution, extended imaging (Fig. S4A); for Effect on translocation: EF-G(GTP) delivered with 10 µM drug to PRE ribosomes, 25 °C; for Affinity for ribosome-bound EF-G vs EF-G in solution: inferred from smFRET with EF-G in excess
EF-G = settings: cited from earlier work
eEF2 = settings: cited from earlier work
P. aeruginosa EF-G1 = settings: cited from earlier work
[2] = tested on: EF-G-ribosome translocation intermediate (INT2); assay: Presteady-state cryo-EM structure of EF-G-ArgB-INT2 translocation intermediate; type: binding, E. coli
Pseudomonas aeruginosa = settings: cited from earlier work
[3] = tested on: E. coli EF-G-70S ribosome; assay: Cryo-EM structure of EF-G-ArgB-70S complex; type: binding
[4] = tested on: EF-G from P. aeruginosa (EF-G1); settings: free P. aeruginosa EF-G1; cited from earlier work

Compound	Binding site on EF-G (EF-G(GDP)-ribosome INT2)	Final state after prolonged stalling [1]	Effect on translocation [1]	Resistance by EF-G mutations (EF-G)	Binding site on eEF2 (eEF2)	Resistance by mutation of Pro414 (P. aeruginosa EF-G1; ArgB-resistant strains)	Resistance by Thr671Ala (E. coli Thr668) (P. aeruginosa EF-G1; P. aeruginosa EF-G1 domain V)	Binding site on EF-G in translocation intermediate ([2]; 10 µM ArgB, 5 µM EF-G, 1 mM GTP)	Contacts of ArgB in EF-G binding pocket ([2]; EF-G-ArgB-INT2, E. coli numbering)	Antimicrobial activity against P. aeruginosa (Pseudomonas aeruginosa)	Inhibition of ribosomes with EF-G in excess ([1]; EF-G in fivefold excess over ArgB (10 µM ArgB, 50 µM EF-G))	Affinity for ribosome-bound EF-G vs EF-G in solution [1]	Affinity for ribosome-bound EF-G vs EF-G in solution ([1]; listed as Argyrin B)	Binding site on EF-G ([3]; 50 µM ArgB, 0.4 µM 70S, 1 µM EF-G, 500 µM GTP)	State in which EF-G is trapped ([3]; nucleotide density compatible with GDP, switch-I disordered)	Direct binding to EF-G1, binding site [4]
CC(=O)O[C@H]1C[C@@]2(C)[C@@H](C[C@@H](O)[C@H]3[C@@]4(C)CC[C@@H](O)[C@@H](C)[C@@H]4CC[C@@]32C)/C1=C(\CCC=C(C)C)C(=O)O [FA, fusidic acid, reference compound]	between domains I and III	eventually reached an EF-G-bound drug-stalled POST state after prolonged stalling	prolonged stalls during late steps of translocation	mutations in EF-G have been reported to confer FA resistance												
CO[C@H]1[C@@H](O)[C@H](O)[C@H](OC[C@@]23C[C@@H]4[C@H](C)CC[C@H]4[C@@]4(C=O)CC2C=C(C(C)C)[C@@]34C(=O)O)O[C@@H]1C [Sordarin]					binds between domains III and V of eEF2											
argyrin B [ArgB]		eventually reached an EF-G-bound drug-stalled POST state after prolonged stalling	prolonged stalls during late steps of translocation			commonly mutated in ArgB-resistant strains	resistance to ArgB	in the junction between EF-G domains III and V	van der Waals interactions with Met617, Leu660, and Met682 within domain V of EF-G and the backbone amide of Ala489 of EF-G was positioned within hydrogen bonding distance to the Sarcosine moiety	at the forefront	all ribosomes were inhibited	preferentially binds with high affinity to EF-G when it is bound to the ribosome; also recorded: lower affinity for EF-G in solution than on the ribosome	low affinity toward EF-G off the ribosome, but high affinity to EF-G bound to the ribosome	between domain III and V of EF-G	traps EF-G on the ribosome after GTP hydrolysis and Pi release	bind directly to EF-G from P. aeruginosa (EF-G1) with the binding site located between domains III and V
